SMILES strings stand for the structures. ≈ marks a conversion by molar mass, not a printed value. Read-outs that look alike come from different tables or passages of the source.

Seven compounds from patent US20240197702A1, “ANTISEPTIC-ANTIBIOTIC GUMBOS EFFECTIVE AGAINST GRAM-NEGATIVE PATHOGENS” (priority 2020, published 2024) can be followed below.

Data set [1] relates to clinical isolates of N. gonorrhoeae. The data set can be described thus: MIC by micro-broth dilution against N. gonorrhoeae clinical isolates. The settings on record: for MIC: four clinical isolates, micro-broth dilution, 20-24 hours. The class given is cell-based, Neisseria gonorrhoeae. The protocol: (§1) Minimum Inhibitory Concentrations of GUMBOS against N. gonorrhoeae: Clinical isolates of N. gonorrhoeae and N. gonorrhoeae ATCC 49226 were obtained from Louisiana State University Health Sciences Center New Orleans HIV Outpatient Clinic. Minimum inhibitory concentrations (MICs) of GUMBOS, constituent parent drugs, azithromycin, and unreacted mixtures were determined using micro-broth dilution in 96-well plates. […] Stock solutions were diluted to a known working concentration and 100 μL were added to the first row of the plate. For susceptibility testing of N. gonorrhoeae, media was prepared according to methods reported by Wade and […]. Euro. Microbiol. Soc. Microbiol. […] This liquid medium allowed dense growth of N. gonorrhoeae for use in broth dilution tests. Protein-free liquid media (100 μL) were added to each well and two-fold dilutions were performed. The antibiotic containing wells were inoculated with an equal volume of bacterial inoculum matching a 0.5 McFarland standard. […] The lowest concentration of antibiotic that prevents growth is the MIC.
(In general: Dilution methods test growth across graded concentrations, often in twofold steps.)

The subject of data set [2] is N. gonorrhoeae ATCC 49226. The data set can be described thus: MIC by micro-broth dilution against N. gonorrhoeae ATCC 49226. The data set is classed as cell-based, Neisseria gonorrhoeae. The settings on record: for MIC: ATCC 49226, micro-broth dilution, 20-24 hours. As for the experimental part: as §1
For data set [3], the system named is Carbapenem-resistant clinical isolate of Enterobacter cloacae. As to the kind of experiment: MIC by micro-broth dilution against carbapenem-resistant E. cloacae. The class given is cell-based. Particulars: CRE E. cloacae, MH broth. The protocol:
(§2) Minimum Inhibitory Concentrations of GUMBOS against N. gonorrhoeae: Clinical isolates of N. gonorrhoeae and N. gonorrhoeae ATCC 49226 were obtained from Louisiana State University Health Sciences Center New Orleans HIV Outpatient Clinic. Minimum inhibitory concentrations (MICs) of GUMBOS, constituent parent drugs, azithromycin, and unreacted mixtures were determined using micro-broth dilution in 96-well plates. Stock solutions of 1 mM were prepared in deionized water (1% DMSO). Stock solutions were diluted to a known working concentration and 100 μL were added to the first row of the plate. For susceptibility testing of N. gonorrhoeae, media was prepared according to methods reported by Wade and Graver (Fed. Euro. Microbiol. Soc. Microbiol. Letts (2007), 273 (1), 35-37). This liquid medium allowed dense growth of N. gonorrhoeae for use in broth dilution tests. Protein-free liquid media (100 μL) were added to each well and two-fold dilutions were performed. The antibiotic containing wells were inoculated with an equal volume of bacterial inoculum matching a 0.5 McFarland standard. Microtiter plates were incubated for 20-24 hours at 37° C. with 5% CO2 and examined for visible signs of bacterial growth as evidenced by turbidity. The lowest concentration of antibiotic that prevents growth is the MIC.
(§3) Minimum Inhibitory Concentrations of GUMBOS against Carbapenem-resistant Enterobacteriaceae: GUMBOS, ceftriaxone, and azithromycin were tested against extended spectrum beta-lactamase (ESBL)-producing gram negative bacteria. Carbapenem-resistant clinical isolates of Escherichia coli, Enterobacter cloacae, and Klebsiella pneumoniae were obtained from Louisiana State University (LSU) Health Sciences Center New Orleans HIV Outpatient Clinic. Minimum inhibitory concentrations were determined as described above using micro-broth dilutions with two minor adjustments, cation-adjusted Mueller Hinton (MH) broth was used instead and stock solutions of test compounds were prepared directly in MH broth.

In data set [4] the test system is N. gonorrhoeae clinical isolates. The data set can be described thus: Kirby-Bauer disc diffusion against N. gonorrhoeae clinical isolates. The data set is classed as cell-based, Neisseria gonorrhoeae. The settings on record: three clinical isolates, 20-24 h. The protocol: (§4) Antimicrobial susceptibility testing: Kirby-Bauer disc diffusion susceptibility tests were used to determine zones of inhibition (ZOIs) for N. gonorrhoeae (ATCC 49226) and three clinical isolates obtained from Louisiana State University Health Sciences Center New Orleans HIV Outpatient Clinic. Kirby-Bauer disc diffusion is one of the CDC's preferred methods of testing the susceptibility of N. gonorrhoeae. Testing was performed according to CLSI recommended procedures. In this susceptibility test, 6 mm diameter blank paper discs were impregnated with known quantities of antimicrobial drug followed by evaporation of solvent; however, ceftriaxone, azithromycin and doxycycline antimicrobial susceptibility discs were purchased from Thermo Fisher Scientific. Impregnated discs were placed onto prepared nutrient agar plates that were inoculated with N. gonorrhoeae to give a confluent lawn of growth. Suspensions of these various strains were prepared in accordance with a 1.0 McFarland standard. Inoculated agar plates were incubated for 20-24 h at 37° C. in a 5% CO2 atmosphere.
(§5) Blank discs were loaded with 50 nmol of GUMBOS, respective constituent compounds and equivalent stoichiometric unreacted mixtures of octenidine and carbenicillin that are equimolar to the purchased ceftriaxone discs (Oxoid™, Thermo Fisher). After 20-24 h incubation, diameters of ZOIs were measured using a ruler. […] Antibacterial activity was improved for octenidine when chloride ions were exchanged for the antibiotic. […] This effect was not seen, however, for an unreacted mixture of the two drugs for either N. gonorrhoeae (ATCC 49226) or clinical isolates. The ZOIs of octenidine/carbenicillin were also larger than or equal to azithromycin and doxycycline ZOIs for N. gonorrhoeae (ATCC 49226). […] This is significant as resistance rates for azithromycin have increased worldwide. Among 57 countries reporting on azithromycin susceptibility, 28 (49%) reported>5% resistance. […] Ceftriaxone produced large ZOIs as the clinical population still remains susceptible to it in the USA (only 0.2% of isolates had elevated resistance to ceftriaxone in 2017).

Data set [5] concerns Carbapenem-resistant clinical isolate of Klebsiella pneumoniae. As to the kind of experiment: MIC by micro-broth dilution against carbapenem-resistant K. pneumoniae. The data set is classed as cell-based. Particulars: CRE K. pneumoniae, MH broth. As for the experimental part: as §2, §3
The subject of data set [6] is Carbapenem-resistant clinical isolates of Escherichia coli. The data set can be described thus: MIC by micro-broth dilution against carbapenem-resistant E. coli. The data set is classed as cell-based. The settings on record: MH broth. The protocol:
as §2, §3

The test system of data set [7] is N. gonorrhoeae ATCC 49226. The data set can be described thus: Kirby-Bauer disc diffusion against N. gonorrhoeae ATCC 49226. The class given is cell-based, Neisseria gonorrhoeae. The settings on record: for Zone size, mm (±SD): ATCC 49226, disc diffusion, 20-24 h; for Zone sizes against CLSI susceptibility range: N. gonorrhoeae (ATCC 49226) and three clinical isolates. The protocol:
as §4, §5
A general note: In agar diffusion tests the substance spreads into inoculated agar from a disc or well.

Data set [8] has as its system HeLa cells. As to the kind of experiment: MTT cytotoxicity assay of ceftriaxone-based GUMBOS. The data set is classed as cell-based. The settings on record: for IC50: read-out: Acute cytotoxicity (IC50); for Relative cell toxicity (in words): comparison with mixture or parent antiseptic. As for the experimental part: Cytotoxicity Assay of GUMBOS: Cytotoxicity of GUMBOS, unreacted mixtures, and antiseptics towards healthy cells were evaluated using the MTT assay, a colorimetric dye assay, according to manufacturer's instructions. […] Stock solutions of antimicrobial agents in cell medium (1% MeOH) were diluted to a known working concentration, doubly diluted, and transferred to seeded cells. […] Cells treated with only DMEM were used as a negative control. After incubation, 15 μL of MTT were added to each well and cells were further incubated for an hour. Sodium dodecyl sulfate dimethylformamide solution was added after this additional incubation time in order to dissolve the purple formazan crystals. Cell viability was quantified at 570 nm using a microplate spectrophotometer (Eppendorf PlateReader AF2200, Hauppauge, NY). Cell viability as a percentage was determined as the ratio between treated cells and untreated (control) cells taken as 100%.
For orientation: Tetrazolium dyes change colour on reduction, which living cells bring about.

Data set [9] is described as follows: Octanol-water partition coefficient (Log P), shake-flask method.
Method: Octanol-Water Partition Coefficient: To determine the relative lipophilic strength of GUMBOS, the logarithmic octanol-water partition coefficient (Log P) was measured. It is a ratiometric parameter based on the concentration of therapeutic agent in either phase of the two-phase system (octanol and water) when at equilibrium (Equation 1). Specifically, a shake-flask method was used. To prevent minimal solvent miscibility, an equal amount of water and 1-octanol were mixed together for 24 hours and subsequently allowed to separate. The octanol layer was used to generate a calibration curve from the absorbance of the compound at various concentrations. An equal volume of saturated water was added to a flask of known concentration (Ci) chosen from the calibration curve. This mixture was stirred for a minimum of two hours and left undisturbed to allow the two solvent layers to separate. The absorbance of the therapeutic salt in the octanol layer was determined (Co). Thus, the concentration of therapeutic agent in water was determined using Ci−Co=Cw.
However, octanol-water partition coefficients were measured for GUMBOS using the shake flask method to further explore the lipophilic properties of these compounds.

One may read the MIC as the smallest concentration in the dilution series that meets the test's criterion for growth inhibition. Regarding `CC[C@H]1OC(=O)[C@H](C)[C@@H](O[C@H]2C[C@@](C)(OC)[C@@H](O)[C@H](C)O2)[C@H](C)[C@@H](O[C@@H]2O[C@H](C)C[C@H](N(C)C)[C@H]2O)[C@](C)(O)C[C@@H](C)CN(C)[C@H](C)[C@@H](O)[C@]1(C)O` [Azithromycin, azithromycin], the “Concentration required for growth inhibition, fold greater than GUMBOS” value in data set [1] (N. gonorrhoeae clinical isolates) is listed as “six to nine”. The MIC in data set [1] (Neisseria gonorrhoeae, read-out: MIC) was 0.6 ± 0.2 µM (≈ 0.449 µg/mL); in data set [2] (Neisseria gonorrhoeae, ATCC49226), 0.8 µM (≈ 0.599 µg/mL); in data set [3] (Enterobacter cloacae), 250 µM (≈ 187 µg/mL); in [5] (Klebsiella pneumoniae), 250 µM (≈ 187 µg/mL); in [6] (Escherichia coli, CRE E. Coli (Isolate 2)), 250 µM (≈ 187 µg/mL); in data set [6] (Escherichia coli, CRE E. coli (Isolate 1)), above 500 µM. Also, the “Zone size, mm (±SD)” value in data set [4] is listed as 36 ± 4 mm; in data set [7] it was 40 ± 1 mm. Further, the “Zone sizes against CLSI susceptibility range” value in data set [7] was “within the susceptibility range set by CLSI”.

For the compound `CO/N=C(\C(=O)N[C@@H]1C(=O)N2C(C(=O)[O-])=C(CSc3nc(=O)c([O-])nn3C)CS[C@H]12)c1csc(N)n1.[Na+].[Na+]` [Ceftriaxone, Ceftriaxone disodium salt], the MIC in data set [1] (read-out: MIC) is given as 0.02 µM; in data set [2] it was 0.04 µM; in data set [3] it was above 500 µM; in data set [5], above 500 µM; in [6] (CRE E. Coli (Isolate 2)), above 500 µM; in data set [6] (CRE E. coli (Isolate 1)), above 500 µM. Moreover, in [2] (N. gonorrhoeae ATCC 49226), the “Concentration as compared to GUMBOS” value is listed as “half-fold decrease”. The results for the “Zone size, mm (±SD)” value in data set [4] and in data set [7] were 49 ± 4 mm and 51 ± 1 mm, respectively. In [7], the “Zone sizes against CLSI susceptibility range” value was “within the susceptibility range set by CLSI”.

In general, IC50 refers to the point on the concentration scale where inhibition reaches its midpoint. As for `CC(=O)O.CC(=O)O.NC(=N\CCCCCC/N=C(N)/N=C(\N)Nc1ccc(Cl)cc1)/N=C(\N)Nc1ccc(Cl)cc1` [Chlorhexidine diacetate, chlorhexidine diacetate], the results for the IC50 in data set [8] (15 min) and in data set [8] (60 min) were 80.8 ± 4.27 µM and 24.6 ± 0.66 µM, respectively. Moreover, the results for the MIC in [1] and in data set [2] were 4.7 ± 1.8 µM and 3.1 µM, respectively.

On to `C[C@H]1c2cccc(O)c2C(=O)C2=C(O)[C@]3(O)C(=O)C(C(N)=O)=C(O)[C@@H](N(C)C)[C@@H]3[C@@H](O)[C@@H]21` [Doxycycline, doxycycline], for which the “Zone size, mm (±SD)” value in data set [4] was 28 ± 7 mm; in data set [7] it was 35 ± 0.6 mm.

As to `CC1(C)S[C@@H]2[C@H](NC(=O)C(C(=O)[O-])c3ccccc3)C(=O)N2[C@H]1C(=O)[O-].[Na+].[Na+]` (some centres unmarked) [Na2 CAR, disodium carbenicillin], the figures for the “Zone size, mm (±SD)” value in data set [4] and in [7] were 28 ± 3 mm and 27 ± 3 mm, respectively.

Usually Log P stands for the decadic logarithm of the partition coefficient of the neutral form, usually between octanol and water. As for `CON=C(C(=O)NC1C(=O)N2C(C(=O)O)=C(CSc3nc(=O)c(O)nn3C)CSC12)c1csc(N)n1.N=C(NCCCCCCNC(=N)NC(=N)Nc1ccc(Cl)cc1)NC(=N)Nc1ccc(Cl)cc1` (centres unmarked) [[CHX][CRO], chlorhexidine-ceftriaxone], the IC50 was determined as 84.3 ± 5.87 µM in data set [8] (15 min) and 45.5 ± 1.42 µM in [8] (60 min). Besides, the “Relative cell toxicity (in words)” value in data set [8] is on record as “only slightly less toxic”; in data set [8] (listed as Chlorhexidine-ceftriaxone), “significantly less toxic than its unreacted, stoichiometric mixture”. Also, the MIC in data set [1] worked out at 0.06 ± 0.02 µM; in [2] it was 0.08 µM; in data set [3], 50 µM; in [5], 50 µM; in data set [6] (CRE E. Coli (Isolate 2)) it was 12.5 µM; in [6] (CRE E. coli (Isolate 1)) it was 25 µM. In addition, in data set [9], the “Log P” value is 0.2 (±0.1).

For the compound `CCCCCCCCNc1cc[n+](CCCCCCCCCC[n+]2ccc(NCCCCCCCC)cc2)cc1.CON=C(C(=O)NC1C(=O)N2C(C(=O)[O-])=C(CSc3nc(=O)c([O-])nn3C)CSC12)c1csc(N)n1` [[OCT][CRO], octenidine-ceftriaxone], the results for the IC50 in data set [8] (15 min) and in [8] (60 min) were 66.5 ± 8.24 µM and 43.3 ± 5.98 µM, respectively. The “Relative cell toxicity (in words)” value in [8] is reported as “significantly less toxic than octenidine dihydrochloride”; in [8] (listed as octenidine-ceftriaxone), “indifferent toxicity to its unreacted, stoichiometric mixture of parent compounds”. The MIC in [1] was 0.09 ± 0.07 µM; in data set [2], 0.08 µM; in [3], 25 µM; in [5] it was 25 µM; in data set [6] (CRE E. Coli (Isolate 2)), 25 µM; in data set [6] (CRE E. coli (Isolate 1)), 50 µM. The “Log P” value in data set [9] is 0.3 (±0.2).
